Data from patent US12336996B2, “Drug combination containing TLR7 agonist” (Chia Tai Tianqing Pharmaceutical Group Co., Ltd., priority 2019, dated 2025).

Columns and labels:
HBV [1] = experiment: Example 2: clinical study of TLR7 agonist combined with entecavir in chronic hepatitis B patients; assay type: in vivo, human; details: TLR7 agonist 1.0-1.8 mg once weekly, entecavir 0.5 mg/day, 24 weeks
Procedure: [drawing 54] (2-butoxy-7-(4-(pyrrolidin-1-ylmethyl) benzyl)-5H-pyrrolo[3,2-d]pyrimidin-4-amine); see WO2016023511 for the preparation method. The compound was prepared into tablets with strength of 0.2 mg or 0.5 mg. • Entecavir: commercially available entecavir tablets with strength of 0.5 mg. Commercially available entecavir tablets include, but are not limited to, entecavir dispersible tablets (Runzhong). • Placebo: a placebo for TLR7 agonist. 2. Enrolled Subjects
The subject should meet all of the following criteria: • 1) Male patients or non-pregnant, non-lactating female patients aged 18-65 years (inclusive); • 2) Serum virology: persistent positive serum HBsAg for 6 months or more, or with evidence of chronic hepatitis B for 6 months; • 3) Previously treated patients: historical HBV DNA inhibition less than the lower limit of normal 24 weeks before enrollment, and HBV DNA inhibition defined as <69 IU/mL determined by a Roche reagent during screening; Fibroscan ≤9.0 Kpa (fasting), and ALT≤5×ULN; • 4) Previously untreated patients: HBV DNA >10^5 copies/mL (or >20000 IU/mL) for HBeAg-positive chronic hepatitis B patients or HBV DNA >10^4 copies/mL (or >2000 IU/mL) for HBeAg-negative patients as determined by Roche's Cobas Taqman real-time quantitative PCR test v2.0, with the lower limit of detection being 20 IU/mL; Fibroscan ≤12.4 Kpa (fasting), and 1×ULN≤ALT≤5×ULN. […] 3. […]

HBV [2] = experiment: AAV mice study: serum HBV DNA copy number by fluorescence quantitative PCR; assay type: in vivo, C57BL/6 mice; details: for HBV DNA (result in words): over a 42-day treatment period, AAV mice; for HBV DNA replication level in mouse serum (treatment period): rAAV8-1.3HBV mice, i.g., ETV 0.0032 (1 W) & 0.001 (2-6 W) mg/kg qd, TLR7 agonist 20 mg/kg tiw
Procedure: Male C57BL/6 mice (Shanghai Slac Laboratory Animal Co., Ltd.) aged 6-8 weeks were taken, and rAAV8-1.3HBV virus (FivePlus Institute of Molecular Medicine, Beijing) was injected into the C57BL/6 mice via tail veins at a dose of 1×10^11 vg. Blood was collected from the orbit at week 2 and week 4 after the virus was injected. Serum was separated, and HBV DNA copy number in serum were measured to determine whether the model was successfully constructed or not. Mice were randomized according to the HBV DNA copy number into vehicle control group, TLR7 agonist group (20 mg/kg, tiw), entecavir (ETV) group (0.0032 (week 1, 1 W) & 0.001 (week 2-6, 2-6 W) mg/kg, qd), and TLR7 agonist and ETV combination group, each group containing 6 mice. The mice in each group were administered intragastrically for 6 weeks, and the administration was stopped for 3 week. Blood was collected from the orbit at weeks 1, 2, 3, 4, 5 and 6 during the administration period and weeks 1, 2 and 3 during the withdrawal period, and serum was separated. The HBV DNA copy number was determined by fluorescence quantitative PCR.
• i. Vehicle control group; • ii. Monotherapy group: entecavir; • iii. Monotherapy group: TLR7 agonist; • iv. Combination group (combo): TLR7 agonist and entecavir;
The test results were evaluated by Jin equation. The Jin equation is a modified method based on the Burgi method, and is also referred to the probability addition method:
The combination efficacy is calculated according to the following equation: q=EA+B/(EA+EB−EA×EB)
wherein EA denotes the efficacy of drug A monotherapy; EB denotes the efficacy of drug B monotherapy; EA+B denotes the efficacy of the combination of drugs A and B.
The significance of q: 0.85 to 1.15 indicates simple addition; 1.15 to 20 indicates enhancement; greater than 20 indicates significant enhancement; 0.85 to 0.55 indicates antagonism; less than 0.55 indicates significant antagonism. The q value takes the absolute value.

[3] = withdrawal period day 49, after 6 weeks of i.g. administration
[4] = withdrawal period day 56, after 6 weeks of i.g. administration
[5] = withdrawal period day 63, after 6 weeks of i.g. administration

Row | SMILES | HBV DNA replication (result in words) (HBV [1]) | HBV DNA (result in words) (HBV [2]) | HBV DNA replication level in mouse serum (treatment period) (HBV [2]; treatment period day 0) | HBV DNA replication level in mouse serum (treatment period) (HBV [2]; treatment period day 7) | HBV DNA replication level in mouse serum (treatment period) (HBV [2]; treatment period day 14) | HBV DNA replication level in mouse serum (treatment period) (HBV [2]; treatment period day 21) | HBV DNA replication level in mouse serum (treatment period) (HBV [2]; treatment period day 28) | HBV DNA replication level in mouse serum (treatment period) (HBV [2]; treatment period day 35) | HBV DNA replication level in mouse serum (treatment period) (HBV [2]; treatment period day 42) | HBV DNA replication level in mouse serum (withdrawal period) (HBV [2]; [3]) | HBV DNA replication level in mouse serum (withdrawal period) (HBV [2]; [4]) | HBV DNA replication level in mouse serum (withdrawal period) (HBV [2]; [5])
1 | CCCCOc1nc(N)c2[nH]cc(Cc3ccc(CN4CCCC4)cc3)c2n1 [TLR7 agonist, 2-butoxy-7-(4-(pyrrolidin-1-ylmethyl)benzyl)-5H-pyrrolo[3,2-d]pyrimidin-4-amine] | achieved inhibition | significantly reduced | 7.53 ± 0.15 logic lU/mL | 6.64 ± 1.33 logic lU/mL | 4.55 ± 1.41 logic lU/mL | 4.13 ± 0.67 logic lU/mL | 3.64 ± 0.21 logic lU/mL | 3.61 ± 0.24 logic lU/mL | 3.41 ± 0.33 logic lU/mL | 4.37 ± 0.48 log10 IU/mL | 4.86 ± 0.41 log10 IU/mL | 5.26 ± 0.39 log10 IU/mL
2 | C=C1[C@H](CO)[C@@H](O)C[C@@H]1n1cnc2c(=O)[nH]c(N)nc21 [entecavir, 2-amino-9-[(1S,3R,4S)-4-hydroxy-3-hydroxymethyl-2-methylenecyclopentyl]-1,9-dihydro-6H-purin-6-one] | inhibitory effects | significantly reduced | 7.53 ± 0.15 logic lU/mL | 5.27 ± 0.18 logic lU/mL | 5.66 ± 0.14 logic lU/mL | 5.96 ± 0.28 logic lU/mL | 5.34 ± 0.43 logic lU/mL | 5.62 ± 0.36 logic lU/mL | 6.44 ± 0.46 logic lU/mL | 6.97 ± 0.72 log10 IU/mL | 7.32 ± 0.73 log10 IU/mL | 7.33 ± 0.80 log10 IU/mL
